We go through two substances from ChEMBL document CHEMBL5154808, “Novel β-Hairpin Antimicrobial Peptides Containing the β-Turn Sequence of -RRRF- Having High Cell Selectivity and Low Incidence of Drug Resistance” (J Med Chem, 2022).

Assay type in all cases: functional
The test system of assay [1] is Staphylococcus aureus. In words: Antimicrobial activity against Staphylococcus aureus ATCC 25923 assessed as reduction in bacterial growth incubated for 18 hrs in presence of 1 mM MgCl2 by CLSI protocol based broth microdilution method (reference value: 8 uM). For orientation: In broth dilution the organism is exposed to a series of concentrations in liquid medium.

Assay [2] concerns Staphylococcus aureus. In words: Antimicrobial activity against Staphylococcus aureus ATCC 25923 assessed as reduction in bacterial growth incubated for 18 hrs in presence of 4 uM FeCl3 by CLSI protocol based broth microdilution method (reference value: 8 uM).
The test system of assay [3] is Escherichia coli. In words: Synergistic antibacterial activity against rifampicin-resistant Escherichia coli ATCC 25922 assessed as fractional inhibitory concentration index incubated for 18 hrs in presence of rifampicin by checker board assay.
Assay [4] concerns Escherichia coli. In words: Antimicrobial activity against Escherichia coli ATCC 25922 assessed as reduction in bacterial growth incubated for 18 hrs in presence of 1 mM MgCl2 by CLSI protocol based broth microdilution method (reference value: 8 uM).
In assay [5] the test system is Escherichia coli. In words: Antimicrobial activity against Escherichia coli ATCC 25922 assessed as reduction in bacterial growth incubated for 18 hrs in presence of 4 uM FeCl3 by CLSI protocol based broth microdilution method (reference value: 4 uM).
For assay [6], the system named is Escherichia coli. In words: Antimicrobial activity against Escherichia coli ATCC 25922 assessed as reduction in bacterial growth incubated for 18 hrs in presence of 4.5 mM KCl by CLSI protocol based broth microdilution method (reference value: 4 uM).
Assay [7] deals with Staphylococcus aureus. In words: Synergistic antibacterial activity against rifampicin-resistant Staphylococcus aureus ATCC 25923 assessed as fractional inhibitory concentration index incubated for 18 hrs in presence of rifampicin by checker board assay.
The subject of assay [8] is Escherichia coli. In words: Antimicrobial activity against Escherichia coli ATCC 25922 assessed as reduction in bacterial growth incubated for 18 hrs in presence of 10% serum by CLSI protocol based broth microdilution method (reference value: 4 uM).
Assay [9] has as its system Staphylococcus aureus. In words: Synergistic antibacterial activity against Staphylococcus aureus ATCC 25923 assessed as fractional inhibitory concentration index incubated for 18 hrs in presence of polymyxin B by checker board assay.
Assay [10] has as its system Staphylococcus aureus. In words: Antimicrobial activity against Staphylococcus aureus ATCC 25923 assessed as reduction in bacterial growth incubated for 18 hrs in presence of 150 mM NaCl by CLSI protocol based broth microdilution method (reference value: 4 uM).
Assay [11] concerns Staphylococcus aureus. In words: Antimicrobial activity against Staphylococcus aureus ATCC 25923 assessed as reduction in bacterial growth incubated for 18 hrs in presence of 4.5 mM KCl by CLSI protocol based broth microdilution method (reference value: 4 uM).

One may read the MIC as the lowest concentration that inhibits growth of the organism.

As for H-KWKWKRRRFKWKWK-NH2, the MIC in the assay on Staphylococcus aureus [1], in the assay with Staphylococcus aureus [2] and with Escherichia coli [4] was 8 µM throughout. For the same substance, the “fractional inhibitory concentration index (FICI)” value with Escherichia coli [3] was 0.5625.
For the substance H-RIRIRRRRFRIRIR-NH2, the MIC amounted to 8 µM in the assay on Escherichia coli [5]; 8 µM in the assay with Escherichia coli [6]; 4 µM with Escherichia coli [8]; 8 µM with Staphylococcus aureus [10]; 4 µM in the assay with Staphylococcus aureus [11]. Further, the “fractional inhibitory concentration index (FICI)” value in the assay with Staphylococcus aureus [7] and in the assay with Staphylococcus aureus [9] was 0.375 in each case.
